Measurements as given in patent publication US5639783A, “Ketone derivatives” (Mitsubishi Chemical Corporation, priority 1991, dated 1997).
pIC50: −log10 of the molar value.

Each molecule was assayed against T1, m-calpain (Rattus norvegicus, UniProt Q07009) (assay: Thiol protease inhibitory activity, m-calpain purified from rat brain). Details: Table 4.
T1 construct: m-calpain was purified from rat brain; from tissue; host or cells: rat brain
T1 sequence (Q07009 20-700 limits assumed): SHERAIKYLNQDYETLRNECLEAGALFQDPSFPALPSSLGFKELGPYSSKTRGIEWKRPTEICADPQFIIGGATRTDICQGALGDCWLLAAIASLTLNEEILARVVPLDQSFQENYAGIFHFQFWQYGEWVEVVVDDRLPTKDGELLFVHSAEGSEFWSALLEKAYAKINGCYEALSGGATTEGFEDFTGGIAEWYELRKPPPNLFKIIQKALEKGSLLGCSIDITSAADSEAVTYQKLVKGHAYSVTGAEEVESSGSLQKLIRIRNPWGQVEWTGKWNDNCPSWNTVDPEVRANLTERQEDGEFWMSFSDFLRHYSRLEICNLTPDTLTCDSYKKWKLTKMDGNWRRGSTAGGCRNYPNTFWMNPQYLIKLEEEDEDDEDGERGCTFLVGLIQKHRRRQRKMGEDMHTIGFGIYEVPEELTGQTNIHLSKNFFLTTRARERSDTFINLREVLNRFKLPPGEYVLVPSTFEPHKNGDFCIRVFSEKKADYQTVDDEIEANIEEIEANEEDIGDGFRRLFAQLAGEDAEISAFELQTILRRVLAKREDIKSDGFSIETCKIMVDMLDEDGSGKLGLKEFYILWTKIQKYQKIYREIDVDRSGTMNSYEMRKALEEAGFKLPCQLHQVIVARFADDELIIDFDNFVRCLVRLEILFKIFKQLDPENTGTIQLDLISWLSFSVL
T1 sequence (Q64537 1-270 partner): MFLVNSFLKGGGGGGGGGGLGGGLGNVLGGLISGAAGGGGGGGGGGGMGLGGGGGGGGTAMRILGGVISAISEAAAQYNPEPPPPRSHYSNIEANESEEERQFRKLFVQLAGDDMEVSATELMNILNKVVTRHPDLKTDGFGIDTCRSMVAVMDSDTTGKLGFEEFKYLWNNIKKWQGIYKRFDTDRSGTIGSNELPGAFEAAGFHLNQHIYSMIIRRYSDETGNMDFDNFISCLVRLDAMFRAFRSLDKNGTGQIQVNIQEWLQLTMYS
Type: biochemical
Method: Inhibitory activity against papain (P-3125, Sigma) and cathepsin B (C-6286, Sigma) was assayed according to the method described in a literature [Biochemical Journal, 201, 189 (1982)]. Cathepsin L was purified from rat kidney according to the method in a literature [Journal of Biochemistry, 100, 35 (1986)], and the inhibitory activity against it was assayed in the same manner as described in the above literature for cathepsin B. Furthermore, m-calpain was purified from rat brain according to a known method [Journal of Biological Chemistry, 254, p. 3210 (1984)] and the inhibitory activity against it was assayed by a method described in a literature [Journal of Biological Chemistry, 259, 12489 (1984)]. It is evident from Tables 3 and 4 that the compounds of the present invention have a potent inhibitory activity against thiol proteases such as papain, cathepsin B, cathepsin L or m-calpain.

SMILES	pIC50
CCCC[C@H](NC(=O)[C@H](CC(C)C)NC(=O)OCc1cccc(C#N)c1)C(=O)CSCc1ccco1 [26 (No. 57), (s)-3-[(s)-2-(3-cyanobenzyloxycarbonylamino)-4-methylvalerylamino]-1-furfurylthio-2-heptanone]	5.55
CCCC[C@H](NC(=O)[C@H](CC(C)C)NC(=O)C1CCCCC1)C(=O)CSCc1ccco1 [29 (No. 65), (s)-3-((s)-2-cyclohexylcarbonylamino-4-methylvalerylamino)-1-furfurylthio-2-heptanone]	5.44
CCCC[C@H](NC(=O)[C@H](CC(C)C)NC(=O)Cc1cccc2c1OCO2)C(=O)CSCc1ccco1 [32 (No. 73), (s)-1-furfurylthio-3-[(s)-4-methyl-2-(2,3-methylenedioxyphenylacetylamino)valerylamino]-2-heptanone]	5.21
CCCC[C@H](NC(=O)[C@H](CC(C)C)NC(=O)COc1ccccc1OC)C(=O)CSCc1ccco1 [47 (No. 102), (s)-1-furfurylthio-3-[(s)-2-(2-methoxyphenoxyacetylamino)-4-methylvalerylamino]-2-heptanone]	5.89
CCCC[C@H](NC(=O)[C@H](CC(C)C)NC(=O)COc1ccc(OC)cc1)C(=O)CSCc1ccco1 [48 (No. 104), (s)-1-furfurylthio-3-[(s)-2-(4-methoxyphenoxyacetylamino)-4-methylvalerylamino]-2-heptanone]	6.00
CCCC[C@H](NC(=O)[C@H](CC(C)C)NC(=O)c1ccccc1F)C(=O)CSCc1ccco1 [55 (No. 117), (s)-3-[(s)-2-(2-fluorobenzoylamino)-4-methylvalerylamino]-1-furfurylthio-2-heptanone]	5.82
CCCC[C@H](NC(=O)[C@H](CC(C)C)NC(=O)c1ccc(F)cc1)C(=O)CSCc1ccco1 [57 (No. 119), (s)-3-[(s)-2-(4-fluorobenzoylamino)-4-methylvalerylamino]-1-furfurylthio-2-heptanone]	5.28
CCCC[C@H](NC(=O)[C@H](CC(C)C)NC(=O)c1ccc(F)cc1F)C(=O)CSCc1ccco1 [59 (No. 121), (s)-3-[(s)-2-(2,4-difluorobenzoylamino)-4-methylvalerylamino]-1-furfurylthio-2-heptanone]	5.38
CCCC[C@H](NC(=O)[C@H](CC(C)C)NC(=O)c1cc(F)ccc1F)C(=O)CSCc1ccco1 [60 (No. 122), (s)-3-[(s)-2-(2,5-difluorobenzoylamino)-4-methylvalerylamino]-1-furfurylthio-2-heptanone]	5.89
CCCC[C@H](NC(=O)[C@H](CC(C)C)NC(=O)c1c(F)cccc1F)C(=O)CSCc1ccco1 [61 (No. 123), (s)-3-[(s)-2-(2,6-difluorobenzoylamino)-4-methylvalerylamino]-1-furfurylthio-2-heptanone]	5.72

Results, then the molecule that gave them:

pIC50	SMILES
5.28	CCCC[C@H](NC(=O)[C@H](CC(C)C)NC(=O)c1cccc(F)c1)C(=O)CSCc1ccco1 [56 (No. 118), (s)-3-[(s)-2-(3-fluorobenzoylamino)-4-methylvalerylamino]-1-furfurylthio-2-heptanone]
5.80	CCCC[C@H](NC(=O)[C@H](CC(C)C)NC(=O)c1cccc(F)c1F)C(=O)CSCc1ccco1 [58 (No. 120), (s)-3-[(s)-2-(2,3-difluorobenzoylamino)-4-methylvalerylamino]-1-furfurylthio-2-heptanone]
5.37	CCCC[C@H](NC(=O)[C@H](CC(C)C)NC(=O)c1ccc(F)c(F)c1)C(=O)CSCc1ccco1 [62 (No. 124), (s)-3-[(s)-2-(3,4-difluorobenzoylamino)-4-methylvalerylamino]-1-furfurylthio-2-heptanone]
5.26	CCCC[C@H](NC(=O)[C@H](CC(C)C)NC(=O)c1cc(F)cc(F)c1)C(=O)CSCc1ccco1 [63 (No. 125), (s)-3-[(s)-2-(3,5-difluorobenzoylamino)-4-methylvalerylamino]-1-furfurylthio-2-heptanone]
